Data reported in ChEMBL document CHEMBL3885861, “Open TG-GATES”.

Species: Rattus norvegicus
Assay: Open TG-GATES - Regimen: Daily Repeat
Assay type: toxicity, organism-based, Sprague-Dawley
Design: regimen Daily Repeat, gender Male, age 6 weeks
Details: in vivo, po, route gavage; for TP / gamma-GTP / ALP / ALT / AST / BUN / CRE / Ca / Cl / DBIL / GLC / IP / K / LDH / Na / PL / RALB / TBIL / TC / TG: tissue Plasma; for APTT / Bas / Eos / Fbg / Hb / Ht / Lym / MCH / MCV / Mono / Neu / PT / Plat / RBC / Ret / WBC / MCHC: tissue Blood; for KIDNEY_L / KIDNEY_R / KIDNEY_TOTAL: tissue Kidney; for LIVER: tissue Liver
[1] = 100 mg/kg, […], dose level Low, time 28 day
[2] = 300 mg/kg, 72 h, dose level Middle, time 3 day
[3] = 300 mg/kg, […], dose level Middle, time 7 day
[4] = 300 mg/kg, […], dose level Middle, time 14 day
[5] = 300 mg/kg, […], dose level Middle, time 28 day
[6] = 1000 mg/kg, 72 h, dose level High, time 3 day
[7] = 1000 mg/kg, […], dose level High, time 7 day
[8] = 1000 mg/kg, […], dose level High, time 14 day
[9] = 1000 mg/kg, […], dose level High, time 28 day

## CCOc1ccc(NC(C)=O)cc1 [PHENACETIN]
[1]
  TP: 6.4 g/dL
  gamma-GTP: 1 IU/L
[2]
  TERMINAL_BW: 224.3 g
  APTT: 21.5 s
  Bas: 0%
  Eos: 1.2%
  Fbg: 290.8 mg/dL
  Hb: 13.5 g/dL
  Ht: 40.7%
  Lym: 75.2%
  MCH: 19.9 pg
  MCV: 60.1 fL
  Mono: 3.4%
  Neu: 19.4%
  PT: 13.4 s
  Plat: 119.3 x10_4/uL
  RBC: 678.8 x10_4/ul
  Ret: 4.8%
  WBC: 98.2 x10_2/uL
  KIDNEY_L: 1 g
  KIDNEY_R: 1 g
  KIDNEY_TOTAL: 2 g
  LIVER: 11.1 g
  ALP: 1609.6 IU/L
  ALT: 39.2 IU/L
  AST: 66.2 IU/L
  BUN: 13 mg/dL
  CRE: 0.2 mg/dL
  Ca: 11.1 mg/dL
  Cl: 104.8 meq/L
  DBIL: 0.01 mg/dL
  GLC: 166 mg/dL
  IP: 6.9 mg/dL
  K: 4 meq/L
  LDH: 69.4 IU/L
  Na: 143.2 meq/L
  PL: 174.4 mg/dL
  RALB: 2.7 g/dL
  TBIL: 0.044 mg/dL
  TC: 80.4 mg/dL
  TG: 145.4 mg/dL
  TP: 5.7 g/dL
  gamma-GTP: 1 IU/L
[3]
  TERMINAL_BW: 262.8 g
  APTT: 17.4 s
  Bas: 0%
  Eos: 1%
  Fbg: 302.6 mg/dL
  Hb: 13.3 g/dL
  Ht: 40.1%
  Lym: 71.8%
  MCH: 20 pg
  MCV: 60.2 fL
  Mono: 2.8%
  Neu: 24.2%
  PT: 13.3 s
  Plat: 122.3 x10_4/uL
  RBC: 666.2 x10_4/ul
  Ret: 6.7%
  WBC: 103.2 x10_2/uL
  KIDNEY_L: 1.2 g
  KIDNEY_R: 1.1 g
  KIDNEY_TOTAL: 2.3 g
  ALP: 1712.6 IU/L
  ALT: 39.4 IU/L
  AST: 64.6 IU/L
  CRE: 0.2 mg/dL
  Ca: 11 mg/dL
  Cl: 104.2 meq/L
  DBIL: 0.008 mg/dL
  GLC: 177.8 mg/dL
  IP: 6.9 mg/dL
  K: 4.3 meq/L
  LDH: 79.4 IU/L
  PL: 174.4 mg/dL
  RALB: 2.7 g/dL
  TBIL: 0.048 mg/dL
  TC: 81.6 mg/dL
  TG: 149 mg/dL
  TP: 5.9 g/dL
  gamma-GTP: 1.4 IU/L
[4]
  TERMINAL_BW: 306 g
  Bas: 0.2%
  Eos: 1%
  Fbg: 273.2 mg/dL
  Lym: 74.4%
  MCH: 19.9 pg
  MCHC: 33.5%
  MCV: 59.3 fL
  Mono: 2.2%
  Neu: 21.8%
  PT: 13.1 s
  Plat: 125.2 x10_4/uL
  RBC: 696.6 x10_4/ul
  Ret: 6.5%
  WBC: 128 x10_2/uL
  KIDNEY_L: 1.2 g
  KIDNEY_R: 1.2 g
  KIDNEY_TOTAL: 2.5 g
  LIVER: 12.6 g
  ALP: 1577.4 IU/L
  ALT: 37.2 IU/L
  AST: 63 IU/L
  BUN: 14.2 mg/dL
  CRE: 0.2 mg/dL
  Ca: 10.7 mg/dL
  DBIL: 0.02 mg/dL
  GLC: 181.8 mg/dL
  IP: 6.3 mg/dL
  K: 4.3 meq/L
  LDH: 159.2 IU/L
  Na: 144.2 meq/L
  PL: 162.2 mg/dL
  RALB: 2.7 g/dL
  TBIL: 0.086 mg/dL
  TC: 78.4 mg/dL
  TG: 91.2 mg/dL
  TP: 5.9 g/dL
  gamma-GTP: 1 IU/L
[5]
  TERMINAL_BW: 397.8 g
  APTT: 21.1 s
  Bas: 0.2%
  Eos: 1.2%
  Fbg: 262.4 mg/dL
  Hb: 14.4 g/dL
  Ht: 42.5%
  Lym: 76.4%
  MCH: 19.1 pg
  MCHC: 33.8%
  MCV: 56.4 fL
  Mono: 1.8%
  PT: 13.7 s
  Plat: 103.8 x10_4/uL
  RBC: 754.2 x10_4/ul
  Ret: 4.9%
  WBC: 159.4 x10_2/uL
  KIDNEY_L: 1.4 g
  KIDNEY_R: 1.4 g
  KIDNEY_TOTAL: 2.9 g
  ALP: 1081 IU/L
  ALT: 40 IU/L
  AST: 63 IU/L
  BUN: 14.4 mg/dL
  CRE: 0.3 mg/dL
  Cl: 105.6 meq/L
  DBIL: 0.02 mg/dL
  GLC: 175.4 mg/dL
  IP: 5.9 mg/dL
  K: 4.1 meq/L
  LDH: 53.2 IU/L
  Na: 145 meq/L
  PL: 156.2 mg/dL
  RALB: 2.8 g/dL
  TBIL: 0.074 mg/dL
  TC: 70.2 mg/dL
  TG: 122.8 mg/dL
  TP: 6.2 g/dL
  gamma-GTP: 1 IU/L
[6]
  TERMINAL_BW: 201.2 g
  Bas: 0%
  Eos: 0.8%
  Fbg: 283.2 mg/dL
  Hb: 12.6 g/dL
  Ht: 37.2%
  Lym: 69.4%
  MCH: 19.9 pg
  MCHC: 33.9%
  MCV: 58.8 fL
  Mono: 3.2%
  Neu: 26%
  PT: 13.3 s
  Plat: 131.8 x10_4/uL
  RBC: 633.4 x10_4/ul
  Ret: 1.5%
  WBC: 108.7 x10_2/uL
  KIDNEY_L: 1 g
  KIDNEY_R: 0.9 g
  KIDNEY_TOTAL: 1.9 g
  LIVER: 11 g
  ALP: 1479.6 IU/L
  ALT: 43.2 IU/L
  AST: 73.6 IU/L
  BUN: 17.8 mg/dL
  CRE: 0.2 mg/dL
  Ca: 11 mg/dL
  DBIL: 0.024 mg/dL
  GLC: 154.6 mg/dL
  IP: 6.3 mg/dL
  K: 4.4 meq/L
  LDH: 77.6 IU/L
  Na: 143.8 meq/L
  PL: 202.4 mg/dL
  RALB: 2.7 g/dL
  TBIL: 0.092 mg/dL
  TC: 111.8 mg/dL
  TG: 87.4 mg/dL
  TP: 5.9 g/dL
  gamma-GTP: 1.4 IU/L
[7]
  TERMINAL_BW: 234.8 g
  APTT: 22.5 s
  Bas: 0.4%
  Eos: 0.4%
  Fbg: 319.6 mg/dL
  Ht: 33.4%
  Lym: 62.2%
  MCH: 22.7 pg
  MCHC: 31.2%
  MCV: 72.7 fL
  Mono: 3%
  Neu: 33.4%
  PT: 13.6 s
  Plat: 156.2 x10_4/uL
  RBC: 463.8 x10_4/ul
  Ret: 17.7%
  WBC: 178.5 x10_2/uL
  KIDNEY_L: 1.1 g
  KIDNEY_R: 1.1 g
  KIDNEY_TOTAL: 2.2 g
  LIVER: 11.9 g
  ALP: 1794.2 IU/L
  ALT: 46.4 IU/L
  AST: 73.2 IU/L
  BUN: 16 mg/dL
  CRE: 0.2 mg/dL
  Ca: 11 mg/dL
  Cl: 104.8 meq/L
  DBIL: 0.04 mg/dL
  GLC: 167.4 mg/dL
  IP: 5.9 mg/dL
  K: 4.5 meq/L
  LDH: 81.4 IU/L
  Na: 144 meq/L
  PL: 172.4 mg/dL
  RALB: 2.7 g/dL
  TBIL: 0.2 mg/dL
  TC: 75.6 mg/dL
  TG: 160 mg/dL
  TP: 6 g/dL
  gamma-GTP: 1.2 IU/L
[8]
  TERMINAL_BW: 283.3 g
  APTT: 19 s
  Bas: 0.2%
  Eos: 0.8%
  Fbg: 263.6 mg/dL
  Ht: 43.1%
  Lym: 72%
  MCH: 25.1 pg
  MCHC: 32%
  MCV: 78.4 fL
  Mono: 3.2%
  Neu: 23.6%
  PT: 13.7 s
  Plat: 108.2 x10_4/uL
  RBC: 550.4 x10_4/ul
  WBC: 119.8 x10_2/uL
  KIDNEY_L: 1.3 g
  KIDNEY_R: 1.3 g
  KIDNEY_TOTAL: 2.5 g
  LIVER: 13.2 g
  ALP: 1457 IU/L
  ALT: 43.2 IU/L
  AST: 68 IU/L
  CRE: 0.2 mg/dL
  Ca: 10.8 mg/dL
  Cl: 103.8 meq/L
  DBIL: 0.036 mg/dL
  GLC: 168.8 mg/dL
  IP: 6.2 mg/dL
  K: 4.5 meq/L
  LDH: 154 IU/L
  Na: 143.2 meq/L
  PL: 176.6 mg/dL
  RALB: 2.7 g/dL
  TBIL: 0.1 mg/dL
  TC: 81.6 mg/dL
  TG: 171.4 mg/dL
  TP: 5.9 g/dL
  gamma-GTP: 1.4 IU/L
[9]
  TERMINAL_BW: 363.6 g
  APTT: 18.1 s
  Bas: 0%
  Eos: 1%
  Fbg: 251.2 mg/dL
  Hb: 13.7 g/dL
  Lym: 66.8%
  MCH: 24.3 pg
  MCHC: 33.3%
  MCV: 72.8 fL
  Mono: 3.2%
  Neu: 28.4%
  Plat: 106.4 x10_4/uL
  RBC: 566.6 x10_4/ul
  Ret: 11.5%
  WBC: 134.5 x10_2/uL
  KIDNEY_L: 1.5 g
  KIDNEY_R: 1.5 g
  KIDNEY_TOTAL: 3 g
  ALP: 1375.4 IU/L
  ALT: 51.4 IU/L
  AST: 72.2 IU/L
  BUN: 21.4 mg/dL
  CRE: 0.3 mg/dL
  Ca: 10.8 mg/dL
  Cl: 102.8 meq/L
  DBIL: 0.038 mg/dL
  GLC: 157 mg/dL
  IP: 6.6 mg/dL
  K: 4.4 meq/L
  LDH: 70.8 IU/L
  Na: 145.2 meq/L
  PL: 171 mg/dL
  RALB: 2.8 g/dL
  TBIL: 0.1 mg/dL
  TC: 81.2 mg/dL
  TG: 125.6 mg/dL
  TP: 6.3 g/dL
  gamma-GTP: 1.2 IU/L
